Experimental data as given in patent US20060141029A1, “Methods and compositions for delivery of catecholic butanes for treatment of diseases” (priority 2003, published 2006).

Assays:
[1] = Solubility; type: physicochemical
[2] = system: HPV-16 transformed immortal mouse epithelial cells (C3); details: cited from earlier work; for tumor growth: intratumor injection, separately or together, C3 tumors in mice
[3] = system: head and neck cancer; test: ex-US clinical study, daily M4N with or without G4N followed by surgical resection; type: in vivo, humans
[4] = dog, in vivo, iv
Procedure: In this example the Maximal Tolerable Dose (MTD) of Dimethyl Sulfoxide (DMSO)] to male and female Beagle Dogs was determined.
Thus the M4N-DMSO group animals were administered with M4N-DMSO with eight intravenous injections via the non-VAP jugular vein every 30 minutes over a 4-hour period. This frequency of delivery mimicked the delivery of the test article using the infusion pump.
The dogs in the DMSO group were observed throughout the jugular vein injection period and for at least one hour following the last (eighth) injection.

[5] = Toxicokinetic (TK) analysis of M4N serum concentration in dogs; type: in vivo, Beagle Dogs; details: DMSO vehicle, doses up to 100 mg/kg
Procedure: Blood samples from the DMSO group animals were collected via the cephalic vein on SD 1, SD 3, SD 6, and SD 8 at the following timepoints: predose, 0.25, 0.5, 1, 2, 4, 8, and 16 hours following the final injection dose of M4N-DMSO. Blood samples collected from the animals were processed for plasma and serum for TK analysis.
The plasma and serum samples were sent to MedTox Laboratories, the Sponsor's designated laboratory for TK analysis. TK analysis of M4N plasma and serum concentration-time data was performed using a validated method (M200406) by MedTox Laboratories and analyzed by noncompartmental methods to obtain estimates of toxicokinetic parameters (where data allow), but not necessarily limited to, Cmax, Tmax and AUC.

[6] = system: refractory head and neck carcinomas
Procedure: All patients were diagnosed with refractory head and neck carcinomas.
Nine (9) subjects were dosed with an intratumoral dose of M4N given weekly for three weeks, at doses of 5 mg/cm^3 tumor volume (2 subjects), 10 mg/cm^3 (2 subjects) 15 mg/cm^3 (3 subjects) and 20 mg/cm^3 (2 subjects). Doses up to 495 mg weekly for three weeks were administered.

[7] = DMSO; cited from earlier work
[8] = system: β-amyloid fibrils; details: in vitro; cited from earlier work
[9] = molecular target: T1, fAβ(1-40) (Homo sapiens, UniProt P05067); details: within a few hours at pH 7.5 at 37° C.; cited from earlier work
T1 construct: broke down fAβ(1-40)

[10] = molecular target: T2, fAβ(1-42) (Homo sapiens, UniProt P05067); details: within a few hours at pH 7.5 at 37° C.; cited from earlier work
T2 construct: fAβ(1-42) within a few hours at pH 7.5

[11] = rodents; cited from earlier work
[12] = in vivo; cited from earlier work
[13] = system: mammary carcinoma MX-1 xenograft; details: intratumoral single dose or topical application, athymic mice; cited from earlier work

T2 sequence (P05067 672-713 limits assumed): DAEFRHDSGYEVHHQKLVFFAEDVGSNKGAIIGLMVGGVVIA
T1 sequence (P05067 672-711 limits assumed): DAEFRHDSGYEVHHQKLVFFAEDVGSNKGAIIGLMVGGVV

Compound: C[C@H](Cc1ccc(OC(=O)CN(C)C)c(OC(=O)CN(C)C)c1)[C@@H](C)Cc1ccc(OC(=O)CN(C)C)c(OC(=O)CN(C)C)c1 [G4N, meso-1,4-bis[3,4-(dimethylaminoacetoxy)phenyl]-(2R,3S)-dimethylbutane]
- water solubility [1]: water-soluble
- tumor growth [2]: some evidence of suppression of tumor growth

Compound: COc1ccc(C[C@@H](C)[C@@H](C)Cc2ccc(OC)c(OC)c2)cc1OC [M4N, meso-1,4-bis(3,4-dimethoxyphenyl)-2,3-dimethylbutane]
- dosage delivered without drug-related toxicity ([3]; for up to five days, with or without G4N 20 mg per day): 20 mg per day
- patients remaining disease free ([3]; long-term follow ups of the ex-US study): 64%
- efficacy in terms of induction of necrosis ([3]; patients that completed the treatment, daily dosing then resection): over 80%
- dose safely administered [4]: up to 100 mg/kg
- blood levels of M4N achieved [5]: up to 14,000 ng/ml
- damage to healthy tissue surrounding the tumor ([6]; in vivo): No damage
- dose delivered without drug-related toxicity ([6]; in vivo): up to 495 mg
- dosing related adverse events ([6]; in vivo): mild or moderate pain on injection
- hematology parameters ([6]; in vivo): No changes attributable to drug
- liver function tests (LFTs) ([6]; in vivo): Sporadic, and non-reproducible mild elevations
- number of Serious Adverse Events (SAE) ([6]; in vivo): 6
- relation of SAEs to study medication ([6]; in vivo): unlikely or not related to study medication
- tolerability of dosing ([6]; in vivo): generally well tolerated
- patients with radiologically confirmed tumor volume reduction ([6]; patients completing three doses): three of the six
- efficacy in terms of induction of necrosis ([6]; patients that completed the treatment, weekly escalating doses): over 80%
- subjects with drug related tumor necrosis after injection ([6]; subjects receiving three doses): 5 of 6
- penetration of tumor tissues ([2]; composition of M4N in DMSO injected into the tumor): penetrate most but not all of the tumor tissues
- tumor growth [2]: some evidence of suppression of tumor growth
- solubility in dimethyl sulfoxide [7]: soluble

Compound: CC(Cc1ccc(O)c(O)c1)C(C)Cc1ccc(O)c(O)c1 (centres unmarked) [NDGA, nordihydroguaiaretic acid]
- β-amyloid fibrils (fAβ) formation [8]: inhibited
- breakdown of fAβ(1-40) [9]: dose-dependently broke down
- breakdown of fAβ(1-42) [10]: dose-dependently broke down
- serum glucose [11]: reducing
- serum non-esterified fatty acids [11]: reducing
- serum triglyceride [11]: reducing
- hypertension [12]: reducing hypertension
- tumor growth [13]: Some evidence of inhibition of tumor growth
